The text below walks through data of US20260258039A1, “AROMATIC COMPOUND, METHOD FOR PREPARING SAME, AND USE THEREOF IN PREPARATION OF ESTROGEN RECEPTOR DEGRADER” (Hinova Pharmaceuticals Inc., priority 2022, published 2026).

Read-outs that look alike come from different tables or passages of the source. Where only a bound is given, the exact number is not on record here.

Test [1] deals with T1, ER (Homo sapiens, UniProt P03372).
T1 construct: T47D breast cancer cells were subcultured in cell culture medium; endogenous in cells; host or cells: T47D breast cancer cells
T1 sequence (P03372 1-595): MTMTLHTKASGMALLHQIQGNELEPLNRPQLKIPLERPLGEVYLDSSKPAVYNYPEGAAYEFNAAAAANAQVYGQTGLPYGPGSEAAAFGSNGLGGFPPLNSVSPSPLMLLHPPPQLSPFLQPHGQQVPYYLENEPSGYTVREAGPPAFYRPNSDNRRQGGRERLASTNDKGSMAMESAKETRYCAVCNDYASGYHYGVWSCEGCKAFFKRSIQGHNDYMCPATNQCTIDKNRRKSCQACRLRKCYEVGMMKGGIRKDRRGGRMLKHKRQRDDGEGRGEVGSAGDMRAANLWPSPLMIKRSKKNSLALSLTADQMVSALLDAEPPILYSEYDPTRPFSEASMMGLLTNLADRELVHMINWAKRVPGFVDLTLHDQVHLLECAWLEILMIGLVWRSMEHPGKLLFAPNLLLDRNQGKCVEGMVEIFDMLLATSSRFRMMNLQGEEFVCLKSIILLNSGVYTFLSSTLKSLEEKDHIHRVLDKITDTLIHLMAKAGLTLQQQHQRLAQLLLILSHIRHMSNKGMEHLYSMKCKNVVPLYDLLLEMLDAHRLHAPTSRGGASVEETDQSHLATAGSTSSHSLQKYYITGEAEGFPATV
The experiment in a line: Degradation activities on ER (Western blotting) in T47D breast cancer cells. It counts as cell-based. The note with it: 24 h, Western blot. The protocol:
T47D breast cancer cells were subcultured in cell culture medium, and the cells in good growth condition were seeded into 6-well plate at 2 mL/well, with 2.5×10^5 cells per well. The cells were incubated overnight in a 37° C. incubator under 5% CO2. The drug was prepared into 10 mM stock solution with dimethyl sulfoxide (DMSO). Prior to use, the stock solution was diluted with DMSO in a ratio of 1:3. […] of the diluted compound was added to the cell culture wells (to ensure a DMSO concentration of 0.1% in the culture system), and each concentration was repeated twice. The plate were gently shaken to mix. Additionally, the negative control wells (containing equal amount of DMSO) and the positive control wells were set up. After 24 hours of culture, the cells were lysed with RIPA cell lysis buffer to extract proteins, and the protein concentration was measured using a BCA kit. The protein loading buffer (5×) was added, and the plate was heated at 100° C. for 5 min. Then, the sample was stored at −20° C. […] of protein collected from each well was loaded onto a polyacrylamide gel for electrophoresis. The protein is transferred from the polyacrylamide gel to a PVDF membrane, blocked with 5% skim milk at room temperature for 1 h, and incubated overnight at 4° C. with primary antibodies Anti-ERα rabbit mAb (CST, Cat #: 8644S) and Anti-GAPDH rabbit mAb (CST, Cat #: 2118L). The membrane was washed three times with TBST solution, with 10 min for each time. The secondary antibody (horseradish peroxidase-labeled goat anti-rabbit IgG) was incubated at room temperature for 2 h, and then the membrane was washed three times with TBST solution, with 10 min for each time. Finally, ECL chromogenic solution was added for color development, and an automatic chemiluminescence instrument was used to take pictures. Images were collected and analyzed.
The degradation activities of the compounds according to the present invention towards ER, as tested by western blotting, are presented in Table 2
(A western blot detects proteins with antibodies after separation by electrophoresis.)

Test [2] deals with T1, ER. The test can be described thus: Degradation activities on ER (ELISA) in T47D breast cancer cells. It is filed as cell-based. The note with it: for DC50: concentration required to degrade 50% of the target protein. An outline of the steps:
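Cellular ER degradation ELISA: compound dosed 24 h on T47D cells (2.5×10^4/well, pre-grown 3 days) at six final levels from 100 nM downward. Remaining ER was detected by HRP-TMB absorbance at 450 nm. Dose-response fitting gave DC50 and Dmax, the maximal percentage degraded.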

The mark [3] stands for this setting: T47D cells, 24 h, ELISA, maximum percentage of target protein degraded, read-out: Dmax.

What is called DC50 is the midpoint of the concentration-degradation curve. A high value points to degradation only at high concentration. The term Dmax denotes the largest share of the target that was removed. As for `O=C1CCC(N2C(=O)c3ccc(N4CC5(CN(CC6CCN(c7ccc([C@@H]8c9ccc(O)cc9CC[C@@H]8c8ccccc8)cc7)CC6)C5)C4)cc3C2=O)C(=O)N1` (stereo partly drawn) [Example 54, 2-(2,6-dioxopiperidin-3-yl)-5-(6-((1-(4-((1R,2S)-6-hydroxyl-2-phenyl-1,2,3,4-tetrahydronaphthalen-1-yl)phenyl)piperidin-4-yl)methyl)-2,6-diazaspiro[3.3]heptan-2-yl)isoinodolin-1,3-dione], the “Percentage reduction of ER” value on ER [1] (compound concentration 100 nM) turned out to be 57%. The DC50 on ER [2] (T47D cells, 24 h, ELISA) is more than 100 nM. Also, the Dmax at ER [2] (setting [3]) is less than 50%.

In the case of `O=C1CCC(N2C(=O)c3ccc(N4CC(N5CCN(c6ccc([C@@H]7c8ccc(O)cc8CC[C@@H]7c7ccccc7)cc6)CC5)C4)cc3C2=O)C(=O)N1` (stereo partly drawn) [Example 55, 2-(2,6-dioxopiperidin-3-yl)-5-(3-(4-(4-((1R,2S)-6-hydroxyl-2-phenyl-1,2,3,4-tetrahydronaphthalen-1-yl)phenyl)piperazine-1-yl)azetidin-1-yl)isoinodolin-1,3-dione], the “Percentage reduction of ER” value at ER [1] (compound concentration 100 nM) is given as 25%. This molecule returned a DC50 at ER [2] (T47D cells, 24 h, ELISA) of more than 100 nM. Further, the Dmax on ER [2] (setting [3]) was less than 50%.

For `O=C1CCC(N2Cc3cc(N4CC5(CN(CC6CCN(c7ccc([C@H]8c9ccc(O)cc9OC[C@H]8c8ccccc8)cc7)CC6)C5)C4)ccc3C2=O)C(=O)N1` (stereo partly drawn) [Example 56, 3-(5-(6-((1-(4-((3R,4S)-7-hydroxyl-3-phenyl-chroman-4-yl)phenyl)piperidin-4-yl)methyl)-2,6-diazaspiro[3.3]heptane-2-yl)-1-oxoisoinodolin-2-yl)piperidin-2,6-one], the “Percentage reduction of ER” value on ER [1] (compound concentration 1 nM) was found to be 59%.

Take `O=C1CCC(N2C(=O)c3ccc(N4CCC(CN5CCC6(CC5)CN(c5ccc([C@@H]7c8ccc(O)cc8CC[C@@H]7c7ccccc7)cc5)C6)CC4)cc3C2=O)C(=O)N1` (stereo partly drawn) [Example 1]: the “Percentage reduction of ER” value on ER [1] (compound concentration 10 nM) was 71%. Besides, the DC50 at ER [2] (T47D cells, 24 h, ELISA) was less than 10 nM. For the same molecule, the Dmax at ER [2] (setting [3]) was 50 to 75%.

Turning to `O=C1CCC(N2Cc3cc(N4CC5(CCN(CC6CCN(c7ccc([C@H]8c9ccc(O)cc9OC[C@H]8c8ccccc8F)cc7)CC6)CC5)C4)ccc3C2=O)C(=O)N1` (stereo partly drawn) [Example 34, 3-(5-(7-((1-(4-((3R,4S)-3-(2-fluorophenyl)-7-hydroxychroman-4-yl)phenyl)piperidin-4-yl)methyl)-2,7-diazaspiro[3.5]nonane-2-yl)-1-oxoisoindol-2-yl)piperidin-2,6-dione], the “Percentage reduction of ER” value on ER [1] (compound concentration 100 nM) is recorded as 51%. Besides, at ER [2] (T47D cells, 24 h, ELISA), the DC50 is more than 100 nM. Besides, the Dmax at ER [2] (setting [3]) was less than 50%.

Take `O=C1CCC(N2Cc3cc(N4CCC5(CC4)CN(CC4CCN(c6ccc([C@@H]7c8ccc(O)cc8CC[C@@H]7c7ccccc7)cc6)CC4)C5)ccc3C2=O)C(=O)N1` (stereo partly drawn) [Example 27, 3-(5-(2-((1-(4-((1R,2S)-6-hydroxyl-2-phenyl-1,2,3,4-tetrahydronaphthalen-1-yl)phenyl)piperidin-4-yl)methyl)-2,7-diazaspiro[3.5]nonan-7-yl)-1-oxoisoinodolin-2-yl)piperidin-2,6-dione]: the “Percentage reduction of ER” value at ER [1] (compound concentration 1 nM) is recorded as 78%. The molecule also returned a Dmax on ER [2] (T47D) of less than 50%. At ER [2] (T47D cells, 24 h, ELISA), this molecule had a DC50 of more than 100 nM.

For the molecule `O=C1CCC(N2C(=O)c3ccc(N4CCC5(CCN(CC6CCN(c7ccc([C@@H]8c9ccc(O)cc9CC[C@@H]8c8ccccc8)cc7)CC6)C5)C4)cc3C2=O)C(=O)N1` (stereo partly drawn) [Example 53, 2-(2,6-dioxopiperidin-3-yl)-5-(7-((1-(4-((1R,2S)-6-hydroxyl-2-phenyl-1,2,3,4-tetrahydronaphthalen-1-yl)phenyl)piperidin-4-yl)methyl)-2,7-diazaspiro[4.4]nonane-2-yl)isoinodolin-1,3-dione], the “Percentage reduction of ER” value at ER [1] (compound concentration 1 nM) came out at 39%. This molecule had a DC50 at ER [2] (T47D cells, 24 h, ELISA) of more than 100 nM. Besides, at ER [2] (setting [3]), the Dmax is less than 50%.

As to `O=C1CCC(N2Cc3cc(N4CCC5(CCN(CC6CCN(c7ccc([C@@H]8c9ccc(O)cc9CC[C@@H]8c8ccccc8)cc7)CC6)C5)C4)ccc3C2=O)C(=O)N1` (stereo partly drawn) [Example 2, 3-(5-(7-((1-(4-((1R,2S)-6-hydroxyl-2-phenyl-1,2,3,4-tetrahydronaphthalen-1-yl)phenyl)piperidin-4-yl)methyl)-2,7-diazaspiro[4.4]nonane-2-yl)-1-oxoisoinodolin-2-yl)piperidin-2,6-dione], the “Percentage reduction of ER” value at ER [1] (compound concentration 1 nM) is listed as 53%. Further, the DC50 at ER [2] (T47D cells, 24 h, ELISA) is more than 100 nM. For the same molecule, the Dmax at ER [2] (setting [3]) was less than 50%.

In the case of `O=C1CCC(N2Cc3cc(N4CC5CN(CC6CCN(c7ccc([C@H]8c9ccc(O)cc9OC[C@H]8c8ccccc8)cc7)CC6)CC5C4)ccc3C2=O)C(=O)N1` (stereo partly drawn) [Example 82, 3-(5-(5-((1-(4-((3R,4S)-7-hydroxyl-3-phenylchroman-4-yl)phenyl)piperidin-4-yl)methyl)hexahydropyrrolo[3,4-c]pyrrole-2(1H)-yl)-1-oxoisoinodolin-2-yl)piperidin-2,6-dione], the “Percentage reduction of ER” value on ER [1] (compound concentration 10 nM) was determined as 49%.

As for `O=C1CCC(N2Cc3cc(N4CC(N5CCN(c6ccc([C@@H]7c8ccc(O)cc8CC[C@@H]7c7ccccc7)cc6)CC5)C4)ccc3C2=O)C(=O)N1` (stereo partly drawn) [Example 59, 3-(5-(3-(4-(4-((1R,2S)-6-hydroxyl-2-phenyl-1,2,3,4-tetrahydronaphthalen-1-yl)phenyl)piperazine-1-yl)azetidin-1-yl)-1-oxoisoindol-2-yl)piperidin-2,6-dione], the “Percentage reduction of ER” value on ER [1] (compound concentration 10 nM) was determined as 54%.

Turning to `O=C1CCC(N2C(=O)c3ccc(N4CC5CN(CC6CCN(c7ccc([C@@H]8c9ccc(O)cc9CC[C@@H]8c8ccccc8)cc7)CC6)CC5C4)cc3C2=O)C(=O)N1` (stereo partly drawn) [Example 25, 2-(2,6-dioxopiperidin-3-yl)-5-(5-((1-(4-((1R,2S)-6-hydroxyl-2-phenyl-1,2,3,4-tetrahydronaphthalen-1-yl)phenyl)piperidin-4-yl)methyl)hexahydropyrrolo[3,4-c]pyrrole-2(1H)-yl)isoinodolin-1,3-dione], at ER [1] (compound concentration 10 nM), the “Percentage reduction of ER” value stood at 47%. The same molecule yielded a DC50 at ER [2] (T47D cells, 24 h, ELISA) of more than 100 nM. Moreover, on ER [2] (setting [3]), the Dmax is less than 50%.

In the case of `O=C1CCC(N2Cc3cc(N4CCC(N5CC6(CCN(c7ccc([C@@H]8c9ccc(O)cc9CC[C@@H]8c8ccccc8)cc7)CC6)C5)CC4)ccc3C2=O)C(=O)N1` (stereo partly drawn) [Example 12], the “Percentage reduction of ER” value on ER [1] (compound concentration 10 nM) is 84%. The molecule also yielded a Dmax on ER [2] (T47D) of more than 75%. This molecule had a DC50 at ER [2] (T47D cells, 24 h, ELISA) of 10 to 50 nM.
